Values quoted from earlier work as cited in US12350135B2, “Absorbent article with odor control composition” (The Procter & Gamble Company, priority 2021, dated 2025).
Where a name gives a salt, the structure may show the parent alone.

Settings: not given
For `ClC=CC[N+]12CN3CN(CN(C3)C1)C2.[Cl-]` [Dowicil 200, 1-(3-Chlorallyl)-3,5,7-triaza-1-azoniaadamantane chloride], the “solubility in water (in words)” value is given as “freely soluble in water”.

Same assay, conditions: in water
For `CC1(C)C(=O)N(CO)C(=O)N1CO` [DMDM hydantoin, 1,3-bis(hydroxymethyl)-5,5-dimethyI-2,4-imidazolidinedione], the water solubility is listed as “more than 50%”. In the case of `[H]/N=C(\N/C(=N/[H])NCCCCCCNC(=N)NC(=N)Nc1ccc(Cl)cc1)Nc1ccc(Cl)cc1` [chlorhexidine diacetate salt, 1,1′-hexamethylene bis(5-(p-chlorophenyl)biguanide), reference compound], the water solubility is given as “about 1.8%”. For `[Na+].[O-][n+]1ccccc1[S-]` [sodium pyrithione], the water solubility is listed as “about 50%”. For `OCCOc1ccccc1` [2-phenoxyethanol], the water solubility is given as “about 2.67%”. For `[H]/N=C(\N/C(=N/[H])NCCCCCCNC(=N)NC(=N)Nc1ccc(Cl)cc1)Nc1ccc(Cl)cc1` [chlorhexidine digluconate salt, 1,1′-hexamethylene bis(5-(p-chlorophenyl)biguanide), reference compound], the water solubility is listed as “about 70%”. In the case of `O=[N+]([O-])C1(Br)COCOC1` [Bronidox L, 5-bromo-5-nitro-1,3-dioxane], the water solubility is given as “about 0.46%”. For `OCCc1ccccc1` [2-phenylethanol], the water solubility is given as “about 2%”. For `OCc1ccccc1` [benzyl alcohol], the water solubility is given as “about 4%”. In the case of `CC(C)(O)C(Cl)(Cl)Cl` [chlorobutanol, 1,1,1,-Trichloro-2-methylpropan-2-ol], the water solubility is given as “about 0.8%”.
